Structures can show the parent of a compound that is named as a salt. Where two headings read alike, the source gives them in different places.

Consider 23 compounds from publication PMC8856928, “A new strategy for hit generation: Novel in cellulo active inhibitors of CYP121A1 from Mycobacterium tuberculosis via a combined X-ray crystallographic and phenotypic screening approach (XP screen)” (European Journal of Medicinal Chemistry, 2022).

The subject of one test is Mtb strain H37Rv. The conditions noted are these: comparison with 61; cited from earlier work.
Test [1] concerns the target T1, Mtb CYP121A1 (Mycobacterium tuberculosis, UniProt P9WPP7).
T1 construct: His6; made in house
Description: Differential scanning fluorimetry (DSF). In kind it is binding. Particulars: read-out: ΔTm. On the technique in general: In DSF a fluorescence change marks the thermal transition of the protein.

Test [2] addresses T2, CYP121A1 (Mycobacterium tuberculosis, UniProt P9WPP7).
T2 construct: made in house
Kind of test: biochemical. In kind it is binding. Particulars: for Kd: UV-Vis titration, compounds screened at 300 μM, Type II Soret shift, 28 °C.

Test [3] concerns the target T1, Mtb CYP121A1. Kind of test: biochemical. In kind it is binding. The conditions noted are these: 25 °C, 50 μM CYP121A1, 10% DMSO-d6; read-out: Kd (ITC).
The next test relates to Mtb H37Rv. Description: Antimycobacterial activity assay (resazurin colorimetric, whole-cell). The conditions noted are these: for MIC90: Mycobacterium tuberculosis, H37RV; for Activity against Mtb: three growth media. The format is cell-based, Mycobacterium tuberculosis.
Test [4] has as its target T2, CYP121A1. In kind it is biochemical. Particulars: 100 μM compound + 100 μM cYY.
In test [5] the target is T2, CYP121A1. Description: X-ray crystallographic screening (crystal soaking). The conditions noted are these: soaking experiments. In kind it is binding.
The target of test [6] is T2, CYP121A1. The format is binding. The conditions noted are these: Kd for cYY over the cYY control.
Where [7] appears, read: 168 h, Mtb H37Rv, 7H9 with low BSA (0.05% albumin, ADN), one week, read-out: MIC90 7H9-Low BSA.
Where [8] appears, read: 168 h, Mtb H37Rv, Middlebrook 7H9 with 10% ADC (BSA rich), one week, read-out: MIC90 c7H9.
Where [9] appears, read: 336 h, Mtb H37Rv, Mycobacterial Minimal Medium with cholesterol, two weeks, read-out: MIC90 MMM-Ch.
Setting [10] is: medium not specified or span over the three growth media tested, read-out: MIC90 against Mtb strain H37Rv.

T2 sequence (P9WPP7 whole entry): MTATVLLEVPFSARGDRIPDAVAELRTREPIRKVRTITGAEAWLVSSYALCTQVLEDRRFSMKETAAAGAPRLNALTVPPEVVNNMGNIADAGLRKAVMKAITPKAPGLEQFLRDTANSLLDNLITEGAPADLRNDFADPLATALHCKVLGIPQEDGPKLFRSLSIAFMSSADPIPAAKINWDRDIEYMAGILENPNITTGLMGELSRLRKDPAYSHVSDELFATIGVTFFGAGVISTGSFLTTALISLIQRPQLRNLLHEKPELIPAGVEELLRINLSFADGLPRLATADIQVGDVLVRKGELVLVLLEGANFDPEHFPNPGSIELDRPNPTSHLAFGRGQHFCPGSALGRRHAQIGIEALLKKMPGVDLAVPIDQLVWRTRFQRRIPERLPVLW
T1 sequence (P9WPP7 whole entry): as above

With `Clc1ccc(COC(Cn2ccnc2)c2ccc(Cl)cc2Cl)cc1` (centres unmarked) [econazole], the “MIC90 of azole anti-fungal drugs” value with Mtb strain H37Rv is 8 µg/mL.
Take `c1ccc2c(CCc3nc4c(c(N5CCOCC5)n3)CNC4)c[nH]c2c1` [Compound 81, 4-(2-(2-(1H-Indol-3-yl)ethyl)-6,7-dihydro-5H-pyrrolo[3,4-d]pyrimidin-4-yl)morpholine hydrochloride]: the ΔTm (as a rule, the change in melting temperature against a reference sample) at 1000 µM at Mtb CYP121A1 [1] came out at 3.5 °C.
`COc1ccc2[nH]cc(CCc3ccncc3)c2c1` [Compound 43]: the Kd (commonly a measure of binding affinity in units of concentration) at CYP121A1 [2] stood at 105 ± 10 µM.
As for `Clc1ccccc1C(c1ccccc1)(c1ccccc1)n1ccnc1` [clotrimazole], the “MIC90 of azole anti-fungal drugs” value in the test with Mtb strain H37Rv is 11 µg/mL.
With `Clc1ccc2[nH]cc(CCc3ccncc3)c2c1` [Compound 8], the Kd on CYP121A1 [2] worked out at 5.8 ± 0.7 µM.
Still for that read-out and setting: under `FC(F)(F)Oc1ccc2[nH]cc(CCc3ccncc3)c2c1` [Compound 44, 3-(2-(Pyridin-4-yl)ethyl)-5-(trifluoromethoxy)-1H-indole] stands 12.7 ± 2.3 µM.
In the case of `Clc1ccc(COC(Cn2ccnc2)c2ccc(Cl)cc2Cl)c(Cl)c1` (centres unmarked) [miconazole], in the test on Mtb strain H37Rv, the “MIC90 of azole anti-fungal drugs” value is 8 µg/mL.
As to `Nc1[nH]nc(-c2ccc(O)cc2)c1-c1ccc(O)cc1` [Compound 45, reference compound], at Mtb CYP121A1 [3], the Kd was 20 to 25 µM. The thermal shift (ΔTm) at 1000 µM on Mtb CYP121A1 [1] is 1 °C.
Turning to `c1ccc2c(c1)OCCN2c1nccc(CCc2c[nH]c3ccccc23)n1` [Compound 61, 4-(4-(2-(1H-Indol-3-yl)ethyl)pyrimidin-2-yl)-3,4-dihydro-2H-benzo[b][1,4]oxazine], the MIC90 (in general, the lowest concentration that inhibits either 90% of growth or 90% of the strains tested, depending on the study) in the test with Mtb H37Rv (setting [7]) is 25 µM; with Mtb H37Rv (setting [8]) it was 12.5 µM; in the test with Mtb H37Rv (setting [9]), 6.25 µM; in the test with Mtb H37Rv (converted from μM value, read-out: MIC90 against Mtb strain H37Rv) it was ~2.2 µg/mL; in the test on Mtb H37Rv (setting [10]) it was 6.25 µM. For the same compound, the “Activity against Mtb” value in the test with Mtb H37Rv is “moderate inhibitors”. Further, the “Inhibition of CYP121A1 / production of mycocyclosin” value on CYP121A1 [4] is given as “markedly reduced the production of mycocyclosin”.
Turning to `COC1CN(c2nccc(CCc3c[nH]c4ccccc34)n2)C1` [Compound 31, 3-(2-(2-(3-Methoxyazetidin-1-yl)pyrimidin-4-yl)ethyl)-1H-indole], the MIC90 worked out at 25 µM in the test on Mtb H37Rv (setting [7]), 50 µM in the test with Mtb H37Rv (setting [8]) and 25 µM with Mtb H37Rv (setting [9]). In addition, the “Activity against Mtb” value in the test with Mtb H37Rv was “moderate inhibitors”. Moreover, the “X-ray crystallographic screening result” value on CYP121A1 [5] is listed as “hits”.
On to `c1ccc2c(CCc3nc4c(c(N5CCOCC5)n3)CCNC4)c[nH]c2c1` [Compound 83, 4-(2-(2-(1H-Indol-3-yl)ethyl)-5,6,7,8-tetrahydropyrido[3,4-d]pyrimidin-4-yl)morpholine hydrochloride], for which, on Mtb CYP121A1 [1], the ΔTm at 1000 µM came to 1 °C.
With `Brc1ccc2[nH]cc(CCc3ccnc(N4CCOCC4)n3)c2c1` [Compound 21, 4-(4-(2-(5-Bromo-1H-indol-3-yl)ethyl)pyrimidin-2-yl)morpholine], on CYP121A1 [5], the “X-ray crystallographic screening result” value is reported as “hits”.
As to `Fc1ccc2[nH]cc(CCc3ccncc3)c2c1` [Compound 41], on CYP121A1 [2], the Kd was found to be 27.3 ± 4.8 µM.
As to `Oc1ccc2[nH]cc(CCc3ccnc(N4CCOCC4)n3)c2c1` [Compound 55, 3-(2-(2-Morpholinopyrimidin-4-yl)ethyl)-1H-indol-5-ol], the ΔTm at 1000 µM at Mtb CYP121A1 [1] came to 0.5 °C.
For the compound `c1ccc2c(CCc3ccnc(N4CCOCC4)n3)c[nH]c2c1` [Compound 14, 4-(4-(2-(1H-Indol-3-yl)ethyl)pyrimidin-2-yl)morpholine], the MIC90 is 25 µM with Mtb H37Rv (setting [7]), 25 µM in the test with Mtb H37Rv (setting [8]), 12.5 µM in the test with Mtb H37Rv (setting [9]) and 12.5 to 25 µM with Mtb H37Rv (setting [10]). In addition, the “Soret band shift (416.5 nm)” value at CYP121A1 [2] (UV-Vis screen) is reported as “lack of shift”. In addition, the dissociation constant Kd on Mtb CYP121A1 [3] was ~100 µM. The “Inhibition of CYP121A1 / production of mycocyclosin” value on CYP121A1 [4] is on record as “markedly reduced the production of mycocyclosin”. On CYP121A1 [6], this compound showed a Fold increase of 1.5. For the same compound, the “X-ray crystallographic screening result” value on CYP121A1 [5] is “hits”.
For the compound `c1ccc2c(CCc3ccncn3)c[nH]c2c1` [Compound 10], the ΔTm at 1000 µM at Mtb CYP121A1 [1] is 3.5 °C. Further, the “X-ray crystallographic screening result” value on CYP121A1 [5] is recorded as “hits”.
For `Ic1ccc2[nH]cc(CCc3ccncc3)c2c1` [Compound 42, 5-Iodo-3-(2-(pyridin-4-yl)ethyl)-1H-indole], the Kd at CYP121A1 [2] was determined as 3.2 ± 0.3 µM.
`c1ccc2c(CCc3ccncc3)c[nH]c2c1` [Compound 7]: the Kd at CYP121A1 [2] was found to be 483 ± 76 µM. The “X-ray crystallographic screening result” value on CYP121A1 [5] is listed as “hits”.
As for `Cn1cc(CCc2ccnc(N3CCOCC3)n2)c2ccccc21` [Compound 57, 4-(4-(2-(1-Methyl-1H-indol-3-yl)ethyl)pyrimidin-2-yl)morpholine], the MIC90 in the test on Mtb H37Rv (setting [7]) was found to be 25 µM; in the test on Mtb H37Rv (setting [8]), 50 µM; in the test with Mtb H37Rv (setting [9]) it was 25 µM. Also, the “Activity against Mtb” value in the test with Mtb H37Rv is reported as “moderate inhibitors”.
For the compound `c1ccc2c(CCc3nc4c(c(N5CC6CCC(C5)O6)n3)CNC4)c[nH]c2c1` [Compound 82, 3-(2-(2-(1H-Indol-3-yl)ethyl)-6,7-dihydro-5H-pyrrolo[3,4-d]pyrimidin-4-yl)-8-oxa-3-azabicyclo[3.2.1]octane hydrochloride], the ΔTm at 1000 µM at Mtb CYP121A1 [1] was found to be 2.4 °C.
On to `FC(F)(F)Oc1ccc(-c2nccc(CCc3c[nH]c4ccccc34)n2)cc1` [Compound 34, 3-(2-(2-(4-(Trifluoromethoxy)phenyl)pyrimidin-4-yl)ethyl)-1H-indole], for which the MIC90 with Mtb H37Rv (setting [7]) is 100 µM; in the test on Mtb H37Rv (setting [8]) it was 100 µM; in the test on Mtb H37Rv (setting [9]), 12.5 µM; with Mtb H37Rv (setting [10]), 12.5 to 50 µM.
Consider `Brc1ccc2[nH]cc(CCc3ccncc3)c2c1` [Compound 9], for which, at CYP121A1 [2], the dissociation constant Kd was 3.8 ± 0.5 µM.
As to `COC1CN(c2nccc(CCc3c[nH]c4ccc(Br)cc34)n2)C1` [Compound 33, 5-Bromo-3-(2-(2-(3-methoxyazetidin-1-yl)pyrimidin-4-yl)ethyl)-1H-indole], the “X-ray crystallographic screening result” value on CYP121A1 [5] is on record as “hits”.
